Assay results reported in ChEMBL document CHEMBL1201862, “PubChem BioAssay data set” (2004).
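All cell lines were grown in 96-well plates and treated with compound for 48 hours. Abbreviation: GI50, concentration required for 50% inhibition of growth.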 The source made the active and inactive calls. No stated cut-off is given here; in the data, active = GI50 up to about 1.1 µM and inactive = higher.

Legend:
Assay in all cases: inhibition of tumour cell growth, NCI panel, 48 h
786-0 = system: 786-0
A498 = system: A498
CAKI-1 = system: CAKI-1
HCT-116 = system: HCT-116
HL-60 = system: HL-60
HOP-92 = system: HOP-92
LOX IMVI = system: LOX IMVI
M14 = system: M14
MCF7 = system: MCF7
MDA-N = system: MDA-N
Malme-3M = system: Malme-3M
OVCAR-3 = system: OVCAR-3
OVCAR-4 = system: OVCAR-4
PC-3 = system: PC-3
RPMI-8226 = system: RPMI-8226
RXF 393 = system: RXF 393
SF-295 = system: SF-295
SK-MEL-28 = system: SK-MEL-28
SK-MEL-5 = system: SK-MEL-5
SK-OV-3 = system: SK-OV-3

Measured: GI50

NC(=O)N/N=C\CC(O)(C(F)(F)Cl)C(F)(F)Cl
inactive: 786-0 > 10 µM | A498 > 10 µM | CAKI-1 > 10 µM | HCT-116 > 10 µM | HL-60 > 10 µM | HOP-92 > 10 µM | LOX IMVI > 10 µM | M14 > 10 µM | MCF7 > 10 µM | MDA-N > 10 µM | Malme-3M > 10 µM | OVCAR-3 > 10 µM | OVCAR-4 > 10 µM | PC-3 > 10 µM | RPMI-8226 > 10 µM | RXF 393 > 10 µM | SF-295 > 10 µM | SK-MEL-28 > 10 µM | SK-MEL-5 > 10 µM | SK-OV-3 > 10 µM

CCOC(=O)C1Cc2c(cc3c4c(cccc24)N(C(C)=O)C3)N(C)C1 (stereo not given)
inactive: 786-0 4.03 µM | A498 > 100 µM | CAKI-1 7.71 µM | HCT-116 3.67 µM | HL-60 11.3 µM | HOP-92 1.65 µM | LOX IMVI 6.35 µM | M14 29.9 µM | MCF7 32.7 µM | MDA-N 1.67 µM | Malme-3M 5.18 µM | OVCAR-3 1.44 µM | OVCAR-4 84.9 µM | PC-3 4.02 µM | RPMI-8226 > 100 µM | RXF 393 4.13 µM | SF-295 8.26 µM | SK-MEL-28 > 100 µM | SK-MEL-5 > 100 µM | SK-OV-3 71.8 µM

C=C[C@@H]1C(CO)=CCC2[C@H]1CCC1C(C)(C)C(=O)CC[C@]21C (stereo not given in full)
inactive: 786-0 > 100 µM | A498 > 100 µM | CAKI-1 > 100 µM | HCT-116 > 100 µM | HL-60 59.3 µM | HOP-92 > 100 µM | LOX IMVI > 100 µM | M14 > 100 µM | MCF7 > 100 µM | MDA-N > 100 µM | Malme-3M > 100 µM | OVCAR-3 > 100 µM | OVCAR-4 > 100 µM | PC-3 > 100 µM | RPMI-8226 > 100 µM | RXF 393 > 100 µM | SF-295 > 100 µM | SK-MEL-28 > 100 µM | SK-MEL-5 > 100 µM | SK-OV-3 > 100 µM
